The record followed here is patent US20090176888A1, “COMPOSITION COMPRISING PHYTOSPHINGOSINE OR DERIVATIVE THEREOF” (KOREA INSTITUTE OF RADIOLOGICAL & MEDICAL SCIENCES, priority 2003, published 2009).

One data set deals with human blood cancer cells. Nature of the data set: Analysis of mitochondrial membrane potential and cytochrome c release. The data set is classed as cell-based. As to conditions: 5 and 10 μg/ml phytosphingosine. Here is the method:
(§1) Human lung cancer cells and blood cancer cells were cultured under the same condition as in the apoptosis test and were treated with 10 ml of phytosphingosine (10 μg/ml of phytosphingosine for lung cancer cells, and 5 μg/ml and 10 μg/ml of phytosphingosine for blood cancer cells). Then, the analysis of mitochondrial membrane potential and western blotting was carried out. Mitochondria were stained with 30 nM of a specific DioC6(3) dye (Calbiochem) for 30 minutes and culture media were removed. Then, lung cancer cells were twice washed with PBS and the membrane potential was analyzed by flow cytometry.

Another data set in a line: Ames test. The text has this:
(§2) Royal Gist-Brocades N.V. (Netherlands) was asked to perform tests for acute oral toxicity and dermal irritation, and Ames tests of phytosphingosine and derivatives thereof.
Background: The Ames test detects mutagens through reverse mutation in bacteria.

For data set [1], the system named is blood cancer cells (Jurkat). Kind of data set: Apoptosis test (Sub G1, propidium iodide, flow cytometry). In kind it is cell-based, human. As to the method:
(§3) Cancer cells as used in the experiment were human lung cancer cells (NCI-H460, Korean Cell Line Bank), human breast cancer cells (MDA-MB-231, American Type Culture Collection (ATCC)), human uterine cervical cancer cells (HeLa, Korean Cell Line Bank), and blood cancer cells (Jurkat, ATCC). These cancer cells were cultured in RPMI 1640 media containing 10% FBS, penicillin, and streptomycin (GIBCO BRL). The apoptosis tests were carried out at human lung cancer cells, breast cancer cells, uterine cervical cancer cells, and blood cancer cells as follows: Phytosphingosine or a derivative thereof was dissolved in DMSO. Samples of the resultant solution of different concentration levels (1, 2, 5, 10, 15, 20 μg/ml) were prepared. According to the following treatment schedule, phytosphingosine treated cancer cells were cultured, washed with PBS (phosphate buffered saline), and fixed with 70% ethanol. The fixed cells were again washed with PBS, suspended in PBS, and 1 mg/ml of RNase was added thereto. Then, DNA was stained with 50 μg/ml of propidium iodide fluorescent dye and the change in the Sub G1 was analyzed by flow cytometry (Becton DICKINSON). The Sub G1, a marker of apoptotic cell death, means DNA distribution lower than that in the G1 phase of cell cycle. (1-1) In order to determine an anticancer effect of phytosphingosine, 5 ml of 10 μg/ml of phytosphingosine was added to respective dishes containing lung cancer cells, breast cancer cells, uterine cervical cancer cells, and blood cancer cells. (1-2) In order to examine a correlation of an anticancer effect with the phytosphingosine concentration and post-treatment culture time, each 5 ml of 2, 5, 10, and 15 μg/ml of phytosphingosine was added to respective human uterine cervical cancer cell-containing dishes and human breast cancer cell-containing dishes. In addition, each 5 ml of 5, 10, 15, and 20 μg/ml of phytosphingosine was added to respective human lung cancer cell-containing dishes, and each 5 ml of 1, 5, 10, and 20 μg/ml of phytosphingosine was added to respective human blood cancer cell-containing dishes.

Data set [2] can be described thus: Oral or transdermal toxicity tests. As to conditions: rat, in vivo, other: oral or transdermal, rats.
Data set [3] relates to human uterine cervical cancer cells (HeLa). Kind of data set: Apoptosis test (Sub G1, propidium iodide, flow cytometry). In kind it is cell-based. As to the method:
as §3
For orientation: In flow cytometry, cells or beads pass a laser one at a time.

The test system of data set [4] is human breast cancer cells (MDA-MB-231). The description is as above. In kind it is cell-based. Here is the method:
as §3

In the next data set the test system is human lung cancer cells. Nature of the data set: Analysis of mitochondrial membrane potential (DioC6(3), flow cytometry) and cytochrome c release. Particulars: 10 μg/ml phytosphingosine. In kind it is cell-based. As to the method: as §1
The next data set in a line: Dermal irritation test. The data set is classed as in vivo. Particulars: rabbits.
Excerpt: as §2

Data set [5] relates to caspases in human blood cancer cells. Kind of data set: Western blotting of caspase-3, caspase-8, caspase-9 and PARP. The data set is classed as cell-based. As to conditions: 5 and 10 μg/ml phytosphingosine, FIG. 10. Here is the method:
(§4) Human lung cancer cells and blood cancer cells were cultured under the same condition as in the apoptosis test and were treated with 10 ml of phytosphingosine (10 μg/ml of phytosphingosine for lung cancer cells, and 5 μg/ml and 10 μg/ml of phytosphingosine for blood cancer cells). Then, the analysis of mitochondrial membrane potential and western blotting was carried out. Phytosphingosine-treated human lung cancer cells and blood cancer cells were dissolved in a protease inhibitor-containing lysis buffer (40 mM Tris-Cl (pH 8.0), 120 mM NaCl, 0.1% […]) and centrifuged to give a protein extract. Pure proteins were isolated from the protein extract using SDS-PAGE and transferred to a nitrocellulose membrane. The protein-bound nitrocellulose membrane was blocked with skim milk and incubated with as caspase-3, caspase-8, caspase-9, and poly(ADP-ribose)polymerase (PARP) as primary antibodies at room temperature for one hour. The primary antibodies-bound nitrocellulose membranes were three times washed with PBS-T (phosphate buffered saline, 0.1% Tween-20) and incubated with HRP (Horse Radish Peroxidase)-conjugated secondary antibodies for one hour. The expression of caspase-3, caspase-8, caspase-9, and PARP was detected using ECL reagent (PerkinElmer Life Science, Inc.).

The subject of data set [6] is caspases in human lung cancer cells. The description is as above. The data set is classed as cell-based. As to conditions: 10 μg/ml phytosphingosine, FIG. 10. Here is the method:
as §4

Where [7] appears, read: 10 μg/ml phytosphingosine, test (1-1), FIG. 1.

For `CCCCCCCCCCCCCC[C@@H](O)[C@@H](O)[C@@H](N)CO` [phytosphingosine], the mitochondrial membrane potential result in the data set with human blood cancer cells and in the data set on human lung cancer cells (FIGS. 7-8) was “decreased” in each case. Besides, the “release of cytochrome c from mitochondria” value in the data set on human blood cancer cells is recorded as “increased”; in the data set on human lung cancer cells (FIGS. 7, 9) it was “increased”. Besides, the “mutagenicity (Ames test)” value in “Ames test” was “do not cause mutation”. Further, the apoptosis in [1] (5 μg/ml or more, culture of 6 hours or more, FIG. 6) was no less than 50%; in data set [1] (5 μg/ml, at 3-6 hours after treatment), no less than 50%; in [1] (10 μg/ml or more, culture of 3 hours or more, FIG. 6) it was no less than 50%; in data set [3] (15 μg/ml or more, culture of 12 hours or more, FIG. 3), no less than 50%; in data set [3] (15 μg/ml, at 12-18 hours after treatment) it was 50%; in [4] (10 μg/ml or more, culture of 12 hours or more, FIG. 4), no less than 50%. This molecule also registered an apoptosis in [4] (10 μg/ml, at 12 hours after treatment) of 50%. Also, the apoptotic rate in [1] (setting [7]) is on record as no less than 50%. For the same molecule, the LD50 (as a rule, the dose at which mortality reaches 50%) in data set [2] was no less than 2000 mg/kg. For the same molecule, the “anticancer effect compared to untreated cancer cells” value in data set [3] (setting [7]) and in data set [4] (setting [7]) was “excellent anticancer effects” throughout. The dermal irritation entry in “Dermal irritation test” is “did not cause dermal damages”. Besides, the “activities of the caspases” value in data set [5] and in data set [6] was “considerably increased” throughout.
